The results in this text go back to ChEMBL document CHEMBL1165984, “Antiviral and anti-inflammatory diterpenoids from the soft coral Sinularia gyrosa” (J Nat Prod, 2010).

Assay [1] concerns A549. Description: Cytotoxicity against human A549 cells by MTT assay. It counts as functional, cell-based. In general terms: Formazan colour is commonly taken as a measure of viable cells.
The subject of assay [2] is P388. Description: Cytotoxicity against mouse P388 cells by MTT assay. The format is functional, cell-based.
Assay [3] concerns Klebsiella aerogenes. Description: Antimicrobial activity against Enterobacter aerogenes ATCC 13048 at 100 ug/disk. The format is functional, organism-based.
Assay [4] relates to Salmonella enteritidis. Description: Antimicrobial activity against Salmonella enteritidis ATCC 13076 at 100 ug/disk. It counts as functional, organism-based. The note with it: Salmonella enterica subsp. enterica serovar Enteritidis.
In assay [5] the test system is Serratia marcescens. Nature of the assay: Antimicrobial activity against Serratia marcescens ATCC 25419 at 100 ug/disk. It counts as functional, organism-based.
The subject of assay [6] is Shigella sonnei. Nature of the assay: Antimicrobial activity against Shigella sonnei ATCC 11060 at 100 ug/disk. The format is functional, organism-based.
Assay [7] concerns Yersinia enterocolitica. Nature of the assay: Antimicrobial activity against Yersinia enterocolitica ATCC 23715 at 100 ug/disk. The format is functional, organism-based.
Assay [8] relates to Human betaherpesvirus 5. Nature of the assay: Antiviral activity against HCMV infected in HEL cells assessed as reduction of virus plaque formation. The note with it: Human betaherpesvirus 5, HEL. The format is functional, organism-based.
Assay [9] concerns RAW264.7. Nature of the assay: Antiinflammatory activity in mouse RAW264.7 cells assessed as iNOS protein expression level at 10 uM. It counts as functional.

Each structure is given as a SMILES string. Activity calls are given as the source filed them. No cut-off for these calls is given here.

As to `C=C(CCC=C(C)C)[C@@H]1CC/C(C)=C/CCC(=C)[C@@H](O)C1`, the inhibition result in assay [1], in assay [2], in assay [3], in assay [4], in assay [5] and in assay [6] was “inactive” throughout. In addition, the inhibition result in [7] is “inactive”.

Take `C=C(CCC=C(C)C)[C@H]1CC[C@@]2(C)[C@H](C1)C(C)=CC[C@@H]2O` [GYROSANOL A]: the inhibition result in assay [1], in [2], in assay [3], in assay [4], in [5] and in assay [6] was “inactive” in each case. For the same compound, the inhibition entry in assay [7] is “inactive”. For the same compound, the IC50 in assay [8] was 2.6 µM. The Activity in assay [9] was 118.5%.

What is called IC50 is the midpoint of a concentration-inhibition curve.
